pIC50: −log10 of the molar value.
Legend:
Assay in all cases: Enzyme inhibiting activity of MMPs, fluorogenic peptide substrate
Format in all cases: biochemical
MMP-13 = target: T1, MMP-13 (Homo sapiens, UniProt P45452); settings: APMA-activated proenzyme; substrate MOCAc-Pro-Leu-Gly-Leu-A2Pr(DNP)-Ala-Arg-NH2, fluorescent intensity; read-out: IC50 MMP-13
T1 construct: purchased Calbiochem (EMD/MERCK Biosciences)
Procedure, shortened: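 Pro-MMP-13 was activated with 1 mM APMA at 37° C for 2 h in 50 mM Tris-HCl pH 7.6, 0.3 M NaCl, 10 mM CaCl2, 0.005% Brij35. Activity was read by fluorescence using MOCAc-Pro-Leu-Gly-Leu-A2Pr(DNP)-Ala-Arg-NH2 substrate, with enzyme and inhibitor blank corrections. IC50 is the concentration giving 50% inhibition.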

MMP-2 = target: T2, MMP-2 (Homo sapiens, UniProt P08253); settings: substrate MOCAc-Pro-Leu-Gly-Leu-A2Pr(DNP)-Ala-Arg-NH2, fluorescent intensity
T2 construct: purchased Calbiochem (EMD/MERCK Biosciences)
T2 sequence (P08253 110-660): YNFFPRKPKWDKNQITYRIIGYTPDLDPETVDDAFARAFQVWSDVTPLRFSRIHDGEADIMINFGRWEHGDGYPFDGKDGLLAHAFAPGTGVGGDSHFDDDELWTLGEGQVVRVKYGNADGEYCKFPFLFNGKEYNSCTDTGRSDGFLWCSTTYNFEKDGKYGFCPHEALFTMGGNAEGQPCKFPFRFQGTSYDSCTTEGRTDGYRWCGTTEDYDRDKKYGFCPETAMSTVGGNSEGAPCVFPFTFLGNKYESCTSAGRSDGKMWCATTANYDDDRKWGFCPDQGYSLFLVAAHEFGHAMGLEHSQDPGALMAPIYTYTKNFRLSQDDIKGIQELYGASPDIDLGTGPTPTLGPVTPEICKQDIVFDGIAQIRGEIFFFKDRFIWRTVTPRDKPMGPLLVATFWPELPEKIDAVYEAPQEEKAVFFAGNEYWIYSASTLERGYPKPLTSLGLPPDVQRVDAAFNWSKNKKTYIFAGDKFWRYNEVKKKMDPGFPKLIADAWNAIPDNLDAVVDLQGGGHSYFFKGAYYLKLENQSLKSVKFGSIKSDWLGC
Protocol: (§1) Various human MMPs (MMP-2, MMP-9 and MMP-13) were purchased from Calbiochem (EMD/MERCK Biosciences).
(§2) The enzyme activity of MMPs was measured according to the method described in C. Graham Knight, Frances Willenbrock and Gillian Murphy: A novel coumarin-labelled peptide for sensitive continuous assays of the matrix metalloproteinases: FEBS LETT., 296, (1992), 263-266. As a substrate, MOCAc-Pro-Leu-Gly-Leu-A2Pr(DNP)- Ala-Arg-NH2 (Peptide Institute, Inc. Osaka, Japan) was used, and the following four assays are performed per compound (inhibitor) for measuring the inhibiting activity.
(§3) (A) Substrate (synthetic substrate), enzyme (MMPs), inhibitor
(§4) (B) Substrate (synthetic substrate), inhibitor
(§5) (C) Substrate (synthetic substrate), enzyme (MMPs)
(§6) (D) Substrate (synthetic substrate)
(§7) In each assay, the fluorescent intensity was measured, and inhibition (%) was calculated by the following equation.
(§8) Inhibition (%)=[I−(A−B)/(C−D)]×100
(§9) IC50 indicates a concentration at which inhibition (%) is 50%.

MMP-9 = target: T3, MMP-9 (Homo sapiens, UniProt P14780); settings: substrate MOCAc-Pro-Leu-Gly-Leu-A2Pr(DNP)-Ala-Arg-NH2, fluorescent intensity
T3 construct: purchased Calbiochem (EMD/MERCK Biosciences)
Protocol: as §1, §2, §3, §4, §5, §6, §7, §8, §9

T3 sequence (P14780 94-707): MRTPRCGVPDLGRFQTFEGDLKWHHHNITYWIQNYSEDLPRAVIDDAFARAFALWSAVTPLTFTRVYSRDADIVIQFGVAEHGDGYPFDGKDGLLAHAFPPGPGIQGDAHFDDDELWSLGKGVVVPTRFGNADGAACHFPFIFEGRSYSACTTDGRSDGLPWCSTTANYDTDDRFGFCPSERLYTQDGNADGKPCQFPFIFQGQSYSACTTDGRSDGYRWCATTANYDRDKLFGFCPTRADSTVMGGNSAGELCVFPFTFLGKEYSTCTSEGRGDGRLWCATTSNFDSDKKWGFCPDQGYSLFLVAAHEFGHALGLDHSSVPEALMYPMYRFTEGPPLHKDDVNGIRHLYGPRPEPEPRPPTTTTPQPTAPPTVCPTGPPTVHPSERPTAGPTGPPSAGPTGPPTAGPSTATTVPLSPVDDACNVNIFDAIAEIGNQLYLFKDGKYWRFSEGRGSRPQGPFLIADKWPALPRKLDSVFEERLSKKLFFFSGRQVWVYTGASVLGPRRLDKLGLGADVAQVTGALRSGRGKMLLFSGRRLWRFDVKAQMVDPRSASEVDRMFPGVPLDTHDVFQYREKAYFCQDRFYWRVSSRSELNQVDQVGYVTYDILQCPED

SMILES	pIC50 (MMP-13)	pIC50 (MMP-2)	pIC50 (MMP-9)
CC(=O)c1ccc(Cl)c2ccc(C#Cc3ccc(N4CCN(S(=O)(=O)N[C@H](C)C(=O)O)CC4)cc3)cc12 [III-10, (R)-2-{4-[4-(8-acetyl-5-chrolonaphthalen-2-ylethynyl)-phenyl]-piperazine-1-sulfonylamino}-proponic acid]	7.89	< 5.00	< 5.00
C[C@@H](NS(=O)(=O)N1CCN(c2ccc(C#Cc3ccnc(C(=O)NCc4ccc5c(c4)oc(=O)n5C)c3)cc2)CC1)C(=O)O [Compound V-2, (R)-2-[4-(4-{2-(3-methyl-2-oxo-2,3-dihydrobenzoxazol-6-ylmethyl)-carbamoyl]-pyridin-4-ylethynyl}-phenyl)-piperazine-1-sulfonylaminol-proponic acid]	9.00	6.00	< 5.00
COc1ccc(Cn2ccc3ccc(C#Cc4ccc(N5CCN(S(=O)(=O)N[C@H](C)C(=O)O)CC5)cc4)cc3c2=O)cc1 [Compound V-36, (R)-2-(4-{4-[2-(4-methoxybenzyl)-1-oxo-1,2-dihydroisoquinolin-7-ylethynyl]-phenyl}-piperazine-1-sulfonylamino)-proponic acid]	8.30	5.00 to 6.00	5.00 to 6.00
CC(C)CO/N=C/c1c[nH]c2ccc(C#Cc3ccc(N4CCN(S(=O)(=O)N[C@H](C)C(=O)O)CC4)cc3)cc12 [Compound V-43, (R)-2-(4-{4-[3-((E)-isobutoxyiminomethyl)-1H-indol-5-ylethynyl]-phenyl}-piperazine-1-sulfonylamino)-proponic acid]	7.72	< 5.00	< 5.00
Cc1cc(C(=O)NC(C)C)c2cc(C#Cc3ccc(N4CCN(S(=O)(=O)N[C@H](C)C(=O)O)CC4)cc3)ccc2n1 [Compound I-115, (R)-2-{4-[4-(4-isopropylcarbamoyl-2-methylquinolin-6-ylethynyl)-phenyl]-piperazine-1-sulfonylamino}-proponic acid]	7.92	5.00 to 6.00	< 5.00
CC(C)[C@@H](NS(=O)(=O)N1CCN(c2ccc(C#Cc3ccnc(C(=O)NCc4ccc5c(c4)OCCO5)c3)cc2)CC1)C(=O)O [III-205, (R)-2-[4-(4-{2-[(2,3-dihydrbenzo[1,4]dioxin-6-ylmethyl)-carbamoyl]-pyridin-4-ylethynyl}-phenyl)-piperazine-1-sulfonylamino]-3-methylbutanoic acid]	8.40	5.00 to 6.00	< 5.00
COc1ccc(C#Cc2ccc(N3CCN(S(=O)(=O)N[C@@H](C(=O)O)C(C)C)CC3)cc2)cc1C(=O)NCC#N [III-94, (R)-2-(4-{4-[3-(cyanomethylcarbamoyl)-4-methoxyphenylethynyl]-phenyl}-piperazine-1-sulfonylamino)-3-methylbutanoic acid]	8.05	5.00 to 6.00	5.00 to 6.00
CC(C)[C@@H](NS(=O)(=O)N1CCN(c2ccc(C#Cc3ccnc(C(=O)NCc4ccc(C#N)cc4)c3)cc2)CC1)C(=O)O [Compound V-31, (R)-2-(4-{4-[2-(4-cyanobenzylcarbamoyl)-pyridin-4-ylethynyl]-phenyl}-piperazine-1-sulfonylamino)-3-methylbutanoic acid]	8.52	5.00 to 6.00	< 5.00
CC(C)[C@@H](NS(=O)(=O)N1CCN(c2ccc(C#Cc3cc(C(=O)NCc4ccccc4)c(=O)n(C)c3)cc2)CC1)C(=O)O [III-30, (R)-2-{4-[4-(5-benzylcarbamoyl-1-methyl-6-oxo-1,6-dihydropyridin-3-ylethynyl)-phenyl]-piperazine-1-sulfonylamino}-3-methylbutanoic acid]	7.66	5.00 to 6.00	< 5.00
CC(C)[C@@H](NS(=O)(=O)N1CCN(c2ccc(C#Cc3ccc4[nH]c(=O)n(CC#N)c(=O)c4c3)cc2)CC1)C(=O)O [Compound V-63, (R)-2-{4-[4-(3-cyanomethyl-2,4-dioxo-1,2,3,4-tetrahydroquinazolin-6-ylethynyl)-phenyl]-piperazine-1-sulfonylamino}-3-methylbutanoic acid]	8.10	5.00 to 6.00	< 5.00
CC(C)[C@@H](NS(=O)(=O)N1CCN(c2ccc(C#Cc3ccnc(C(=O)NCc4cc(F)cc(F)c4)c3)cc2)CC1)C(=O)O [III-192, (R)-2-(4-{4-[2-(3,5-difluorobenzylcarbamoyl)-pyridin-4-ylethynyl]-phenyl}-piperazine-1-sulfonylamino)-3-methylbutanoic acid]	8.10	5.00 to 6.00	< 5.00
CC(C)[C@@H](NS(=O)(=O)N1CCN(c2ccc(C#Cc3ccnc(C(=O)NCc4ccc(F)c(Cl)c4)c3)cc2)CC1)C(=O)O [III-179, (R)-2-(4-{4-[2-(3-chloro4-fluorobenzylcarbamoyl)-pyridin-4-ylethynyl]-phenyl}-piperazine-1-sulfonylamino)-3-methylbutanoic acid]	7.92	< 5.00	< 5.00
Cc1cc(CNC(=O)c2cc(C#Cc3ccc(N4CCN(S(=O)(=O)N[C@@H](C(=O)O)C(C)C)CC4)cc3)ccn2)ccc1F [III-184, (R)-2-(4-{4-[2-(4-fluoro-3-methylbenzylcarbamoyl)-pyridin-4-ylethynyl]-phenyl}-piperazine-1-sulfonylamino)-3-methylbutanoic acid]	7.85	5.00 to 6.00	< 5.00
CC(C)[C@@H](NS(=O)(=O)N1CCN(c2ccc(C#Cc3ccnc(C(=O)NCc4cccs4)c3)cc2)CC1)C(=O)O [III-187, (R)-3-methyl-2-[4-(4-{2-[(thiophen-2-ylmethyl)-carbamoyl]-pyridin-4-ylethynyl}-phenyl)-piperazine-1-sulfonylamino]-butanoic acid]	8.15	5.00 to 6.00	< 5.00
COc1ccc(CNC(=O)c2cc(C#Cc3ccc(N4CCN(S(=O)(=O)NC(C)(C)C(=O)O)CC4)cc3)ccn2)cc1 [Compound V-7, 2-(4-{4-[2-(4-methoxybenzylcarbamoyl)-pyridin-4-ylethynyl]-phenyl}-piperazine-1-sulfonylamino)-2-methylproponic acid]	7.92	5.00 to 6.00	< 5.00
CC(C)[C@@H](NS(=O)(=O)N1CCN(c2ccc(C#Cc3ccc4[nH]c(=O)n(Cc5cccc(F)c5)c(=O)c4c3)cc2)CC1)C(=O)O [Compound V-65, (R)-2-(4-{4-[3-(3-fluorobenzyl)-2,4-dioxo-1,2,3,4-tetrahydroquinazolin-6-ylethynyl]-phenyl}-piperazine-1-sulfonylamino)-3-methylbutanoic acid]	7.77	< 5.00	< 5.00
C[C@@H](NS(=O)(=O)N1CCN(c2ccc(C#Cc3ccc4c(c3)c(/C=C/Cl)cn4C)cc2)CC1)C(=O)O [Compound V-44, (R)-2-(4-{4-[3-((E)-2-chrolovinyl)-1-methyl1H-indol-5-ylethynyl]-phenyl}-piperazine-1-sulfonylamino)-proponic acid]	7.80	5.00 to 6.00	< 5.00
CC(C)[C@@H](NS(=O)(=O)N1CCN(c2ccc(C#Cc3ccnc(C(=O)NCc4ccc(N5CCOCC5)cc4)c3)cc2)CC1)C(=O)O	8.40	5.00 to 6.00	< 5.00
CNC(=O)c1ccc(COc2cccc(-c3csc(C#Cc4ccc(N5CCN(S(=O)(=O)N[C@@H](C(=O)O)C(C)C)CC5)cc4)n3)c2)cc1 [Compound V-79, (R)-3-methyl-2-[4-(4-{4-[3-(4-methylcarbamoylbenzyloxy)-phenyl]-thiazol-2-ylethynyl}-phenyl)-piperazine-1-sulfonylamino]-butanoic acid]	8.40	< 5.00	< 5.00
CC(C)COc1ccc(C#Cc2ccc(N3CCN(S(=O)(=O)N[C@@H](C(=O)O)C(C)C)CC3)cc2)cc1C(=O)NCc1ccc(S(C)(=O)=O)cc1 [Compound V-6, (R)-2-(4-{4-[4-isobutoxy-3-(4-methanesulfonylbenzylcarbamoyl)-phenylethynyl]-phenyl}-piperazine-1-sulfonylamino)-3-methylbutanoic acid]	7.72	< 5.00	< 5.00
